Tests used:
[1] = test system: meningococcal colonization of the human dermal vasculature; assay: In vivo meningococcal infection of mice engrafted with human skin
[2] = test system: N. meningitidis 2C4.3 isogenic derivative mutant PilT; assay: Aggregation of PilT mutant in suspension (phase-contrast video microscopy); format: cell-based, Neisseria meningitidis; details: 50 μM
Method: N. meningitidis 2C4.3 wild type strain and the isogenic derivative mutant PilT ([…]PiIT) were grown in liquid culture at 10^7 CFU/ml for 2 h to form bacterial aggregates and then treated with 50 μM Trifluoperazine. Time lapse phase-contrast video microscopy was performed to visualize the effect on bacterial aggregates over time. Images were taken at the indicated time points of the video.
N. meninigitidis 2C4.3 strain and the isogenic derivative mutant PilT, where the pilT gene was interrupted by an erythromycin-resistance cassette (Pujol et al., 1999), were grown in suspension in DMEM medium supplemented with 10% heat-inactivated fetal calf serum. PilT belongs to a highly conserved protein family homologous to AAA-type motor proteins and is proposed to cause the retraction of type IV pili by disassembling the pilin subunits at the base of the fiber (Morand et al., 2004). After 2 h of growth, Trifluoperazine (or control vehicle) was added at 50 μM for 20 min. The effect on bacterial aggregates were visualized over time using a phase-contrast microscope or the bacterial suspensions were fixed in 4% Paraformaldehyde for 10 min, centrifuged at 1000 rpm for 5 minutes and the bacterial pellets washed in PBS. After negative staining with 1% phosphotungstic acid, bacteria were analysed by transmission electron microscopy, using a JEOL 1011 microscope.

In the case of `CN1CCN(CCCN2c3ccccc3Sc3ccc(C(F)(F)F)cc32)CC1` [Trifluoperazine], the “colonization of the human dermal vasculature” value [1] is reported as “prevents the massive colonization”, the “incidence of vascular alteration” value [1] is reported as “reduces incidence of vascular alteration” and the “signs of intravascular coagulation” value [1] is reported as “reduces the signs of intravascular coagulation”. For the same molecule, the “hallmark of vascular inflammation” value ([1]; alone or in combination with cefotaxime) was “drastically reduced” and the “effect on aggregation of PilT mutant strain” value [2] was “had no effect”.

Reference: patent publication US20200222418A1, “USE OF PHENOTHIAZINE DERIVATIVE IN THE TREATMENT OF INFECTION CAUSED BY BACTERIA CARRYING TYPE IV PILI” (priority 2017, published 2020)
